The results in this text go back to patent US4207326A, “Antimicrobial quaternary pyrazole derivatives” (Cilag-Chemie A.G., priority 1979, dated 1980).

Where two headings read alike, the source gives them in different places.

Experiment [1] relates to T. mentagrophytes. Description: Antifungal activity: Minimum Inhibitory Concentration. Type of experiment: cell-based, Trichophyton mentagrophytes NCPF 410. The following applies: T. mentagrophytes, 27° C., one week; for MIC: Trichophyton mentagrophytes, read-out: Minimum Inhibitory Concentration. The protocol: (§1) The antimicrobial activity was determined by inoculation of the test microorganism into suitable growth media containing solutions of the compounds at concentrations of 100, 50, 10, 5, 1.0, 0.5 and 0.1 μg/ml. The reference antibiotics used were Gentamicin for the antibacterial tests and Amphotericin B for the antimycotic and antifungal tests. After incubation the antimicrobial activity was recorded as the Minimal Inhibitory Concentration (M.I.C.), i.e., the lowest concentration preventing macroscopically visible growth, for each test compound against each organism.
(§2) An initial solution of each formula (I) compound to be tested in sterile distilled water was prepared at a concentration of 1000 μg/ml. With appropriate dilutions using sterile distilled water, additional solutions were prepared at concentrations of 500, 100, 50, 10, 5 and 1 μg/ml.
T. mentagrophytes NCPF 410
The A. corymbifera, A. fumigatus, S. schenkii, T. rubrum, T. mentagrophytes, M. canis and P. verrucosa strains were all maintained on Sabouraud-Dextrose Agar (Oxoid CM 41) by incubating for 14 days at 27° C. To prepare the inocula 30 ml volumes of Sabouraud-Liquid medium (Oxoid CM 147) were inoculated from the agar cultures and incubated at 27° C. until heavy uniform growth resulted. The mycelial growth was then broken up by shaking with glass beads.
1 Ml aliquots were removed from each of the cultures for the purpose of making viable counts and the cultures were then held at 4° C. The viable counts were made by preparing serial ten-fold dilutions of the cultures in sterile physiological saline and spreading on plates of Sabouraud-Dextrose Agar (Oxoid CM 41) which were then incubated at 27° C. for 14 days. When the viable counts had confirmed that each of the inocula contained approximately 10^6 colony forming units (C.F.U.) per ml the cultures were withdrawn from the refrigerator and used as the inocula for the tests.
(c) For the tests on each of the remaining seven strains and each of the test and reference compounds, a series of 8 tubes containing 4.5 ml volumes of Sabouraud-Liquid Medium (Oxoid CM 147) were prepared. To 7 of these were added 0.5 ml volumes of the final solutions of the test compounds, giving final concentrations in the broths of 100, 50, 10, 5, 1.0, 0.5 and 0.1 μg/ml. To the eighth tube in each series was added 0.5 ml of the solvent used and diluted as for the preparation of the 500 μg/ml solution of the compound. This tube was used as a growth control. The tubes were then inoculated with 0.1 ml aliquots of the inocula prepared as in "(b) Fungi" above. The tubes were then incubated at 27° C. with continuous shaking for a period of one week. The tubes were then examined for evidence of growth as shown by the presence of mycelial growth in the medium and the lowest concentration of the test compound which prevented fungal growth was recorded as the Minimal Inhibitory Concentration. This test procedure was carried out on two separate days.

The subject of experiment [2] is S. pyogenes. Kind of experiment: Antibacterial activity: Minimum Inhibitory Concentration. Format: cell-based, Streptococcus pyogenes NCTC 8198. The following applies: 24 hours; for MIC: Streptococcus pyogenes. On the procedure: as §1, §2
(§3) They were cultured and maintained on Tryptone Soy Agar (Oxoid CM 131), with the addition of 10% horse blood for the S. pyogenes.
(§4) To prepare the organisms as inocula for the test, slopes of this medium were streaked with the organisms and incubated at 37° C. for 24 hours. 4.5 Ml volumes of Brian-Heart Infusion Broth (Oxoid CM 225) were then inoculated with a platinum loop from the agar slope cultures and incubated for 24 hours at 37° C. The final inocula were then prepared by adding 0.1 ml aliquots of the Brain-Heart Infusion Broth cultures to 100 ml volumes of sterile physiological saline.
(§5) (a) For the test on each of the bacterial strains and each of the test and reference compounds, a series of 8 tubes containing 4.5 ml volumes of Brain-Heart Infusion Broth (Oxoid CM 225) were prepared. To 7 of these were added 0.5 ml volumes of the final solutions of the test compouns, giving final concentrations in the broths of 100, 50, 10, 5, 1.0, 0.5 and 0.1 μg/ml. To the eighth tube in each series was added 0.5 ml of the solvent used and diluted as for the preparation of the 1000 μg/ml solution of the compound. This tube was used as the growth control. The tubes were inoculated with 0.02 ml aliquots of the inocula prepared in accordance with "(a) Bacteria" above, and incubated at 37° C. for 24 hours. The tubes were then examined for evidence of bacterial growth as shown by turbidity of the medium and the lowest concentration of the test compound which prevented bacterial growth was recorded as the Minimal Inhibitory Concentration. This test procedure was carried out on two separate days.

In experiment [3] the test system is C. neoformans. Kind of experiment: Antimycotic activity: Minimum Inhibitory Concentration. Format: cell-based, Cryptococcus neoformans NCPF 3184. The following applies: pH 5.5, 30° C., 72 hours; for Minimum Inhibitory Concentrations: C. neoformans; for MIC: Cryptococcus neoformans. On the procedure:
as §1, §2
The C. neoformans was also maintained on Sabouraud-Dextrose Agar (Oxoid CM 41), but in this case cultures for the preparation of the inoculum were incubated on this agar at 30° C. for 48 hours. A 4.5 ml volume of citric acid-phosphate buffer pH 5.5 plus Yeast-Nitrogen Base (Difco-0392-15) was then inoculated from the agar culture and incubated at 30° C. for 48 hours. A 0.1 ml aliquot of this culture was then added to 100 ml sterile physiological saline to give the final inoculum.
(b) For the tests on each of the C. albicans, C. tropicalis and C. neoformans strains and each of the test and reference compounds, a series of 8 tubes containing 4.5 ml volumes of citric acid-phosphate buffer pH 5.5 plus Yeast-Nitrogen Base (Difco 0392-15) were prepared. To 7 of these were added 0.5 ml volumes of the final solutions of the test compounds, giving final concentrations in the broths of 100, 50, 10, 5, 1.0, 0.5 and 0.1 μg/ml. To the eighth tube in each series was added 0.5 ml of the solvent used and diluted as for the preparation of the 1000 μg/ml solution of the compound. This tube was used as the growth control. The tubes were then inoculated with 0.1 ml aliquots of the inocula prepared as in "(b) Fungi" above. The tubes inoculated with the C. albicans and C. tropicalis were inoculated at 37° C. for 72 hours and the tubes inoculated with the C. neoformans straim were incubated at 30° C. for 72 hours. […] The tubes were then examined for evidence of growth as shown by turbidity of the medium and the lowest concentration of the test compound which prevented fungal growth was recorded as the Minimal Inhibitory Concentration. This test procedure was carried out on two separate days.

In experiment [4] the test system is P. aeruginosa. Kind of experiment: Antibacterial activity: Minimum Inhibitory Concentration. Type of experiment: cell-based, Pseudomonas aeruginosa ATCC 9027. The following applies: for MIC: Pseudomonas aeruginosa, read-out: Minimum Inhibitory Concentration. The protocol: as §1, §2, §3, §4, §5
Where [5] appears, read: P. aeruginosa, Day 1, 37° C., 24 hours.
Setting [6] is: P. aeruginosa, Day 2, 37° C., 24 hours.
Setting [7] is: pH 5.5, C. neoformans, Day 1, read-out: Minimum Inhibitory Concentrations.
[8] abbreviates: pH 5.5, C. neoformans, Day 2, read-out: Minimum Inhibitory Concentrations.

As to “2,3(5)-dimethyl-1-dodecyl-pyrazolium methosulfate [Example 8-A]”, the “Minimum Inhibitory Concentration” value in experiment [1] (Day 1) amounted to 5 µg/mL; in experiment [1] (Day 2), 5 µg/mL; in experiment [2] (Day 1, 37° C.), 5 µg/mL; in experiment [2] (Day 2, 37° C.) it was 5 µg/mL; in experiment [4] (setting [5]), 50 µg/mL; in experiment [4] (setting [6]), 50 µg/mL. In addition, the results for the “Minimum Inhibitory Concentrations” value in experiment [3] (Day 1) and in experiment [3] (Day 2) were 5 µg/mL and 1 µg/mL, respectively.
Consider “2,3(5)-dimethyl-1-hexadecyl-pyrazolium methosulfate [Example 9]”, for which the “Minimum Inhibitory Concentration” value in experiment [1] (Day 1) came out at 5 µg/mL; in experiment [1] (Day 2), 5 µg/mL; in experiment [2] (Day 1, 37° C.) it was 0.5 µg/mL; in experiment [2] (Day 2, 37° C.), 0.5 µg/mL; in experiment [4] (setting [5]) it was 10 µg/mL; in experiment [4] (setting [6]), 10 µg/mL. Also, the results for the “Minimum Inhibitory Concentrations” value in experiment [3] (Day 1) and in experiment [3] (Day 2) were 1 µg/mL and 0.5 µg/mL, respectively.
For the compound `CCCCCCCCCCCCn1c(C)cc(C)[n+]1C` [Example 1, 1-dodecyl-2,3,5-trimethyl-pyrazolium methosulfate], the MIC stood at 50 µg/mL in experiment [1] (Day 1); 50 µg/mL in experiment [1] (Day 2); 1 µg/mL in experiment [2] (Day 1, 37° C.); 0.5 µg/mL in experiment [2] (Day 2, 37° C.); 0.5 µg/mL in experiment [3] (setting [7]); 0.5 µg/mL in experiment [3] (setting [8]). For the same compound, the figures for the MIC in experiment [4] (setting [5]) and in experiment [4] (setting [6]) were 50 µg/mL and 10 µg/mL, respectively.
`CCCCCCCCCCCCCCCCn1c(C)cc(C)[n+]1C` [Example 2, 1-hexadecyl-2,3,5-trimethyl-pyrazolium methosulfate]: the MIC in experiment [1] (Day 1) is 1 µg/mL; in experiment [1] (Day 2), 5 µg/mL; in experiment [2] (Day 1, 37° C.) it was 0.5 µg/mL; in experiment [2] (Day 2, 37° C.), 0.5 µg/mL; in experiment [3] (setting [7]) it was 0.5 µg/mL; in experiment [3] (setting [8]), 0.5 µg/mL. The values for the MIC in experiment [4] (setting [5]) and in experiment [4] (setting [6]) were 10 µg/mL and 5 µg/mL, respectively.
As for `CCCCCCCCCCCCCCCCn1ccc[n+]1C` [Example 3-D, 1-hexadecyl-2-methyl-pyrazolium methosulfate], the MIC in experiment [1] (Day 1) is 1 µg/mL; in experiment [1] (Day 2), 1 µg/mL; in experiment [2] (Day 1, 37° C.), 0.5 µg/mL; in experiment [2] (Day 2, 37° C.), 0.5 µg/mL; in experiment [3] (setting [7]), 5 µg/mL; in experiment [3] (setting [8]), 1 µg/mL. Further, the MIC in experiment [4] (setting [5]) worked out at 50 µg/mL; in experiment [4] (setting [6]), 10 µg/mL.
On to `CCCCCCCCCCCCn1ccc[n+]1C` [Example 3-E, 1-dodecyl-2-methy-pyrazolium methosulfate], for which the MIC in experiment [1] (Day 1) is 1 µg/mL; in experiment [1] (Day 2), 5 µg/mL; in experiment [2] (Day 1, 37° C.), 5 µg/mL; in experiment [2] (Day 2, 37° C.), 5 µg/mL; in experiment [3] (setting [7]), 1 µg/mL; in experiment [3] (setting [8]), 5 µg/mL. Also, the MIC in experiment [4] (setting [5]) and in experiment [4] (setting [6]) was 50 µg/mL each time.
Consider `CCCCCCCCCCCCCCn1ccc[n+]1C` [Example 3-G, 2-methyl-1-tetradecyl-pyrazolium methosulfate], for which the MIC in experiment [1] (Day 1) was 1 µg/mL; in experiment [1] (Day 2) it was 5 µg/mL; in experiment [2] (Day 1, 37° C.), 0.5 µg/mL; in experiment [2] (Day 2, 37° C.), 0.5 µg/mL; in experiment [3] (setting [7]), 1 µg/mL; in experiment [3] (setting [8]) it was 1 µg/mL. The MIC in experiment [4] (setting [5]) and in experiment [4] (setting [6]) was 10 µg/mL throughout.
With `CCCCCCCCCCCC[n+]1c(C)cc(C)n1Cc1ccc(Cl)cc1Cl.[Br-]` [Example 6-B, 2-(2,4-dichlorobenzyl)-3,5-dimethyl-1-dodecyl-pyrazolium bromide], the MIC amounted to 1 µg/mL in experiment [1] (Day 1); 1 µg/mL in experiment [1] (Day 2); 0.5 µg/mL in experiment [2] (Day 1, 37° C.); 0.5 µg/mL in experiment [2] (Day 2, 37° C.); 1 µg/mL in experiment [3] (setting [7]); 1 µg/mL in experiment [3] (setting [8]). Moreover, the MIC in experiment [4] (setting [5]) and in experiment [4] (setting [6]) was 10 µg/mL each time.
In the case of `CCCCCCCCCCCCCCCC[n+]1c(C)cc(C)n1C.Cc1ccc(S(=O)(=O)[O-])cc1` [Example 6-C, 1-hexadecyl-2,3,5-trimethylpyrazolium p-toluene sulfonate], in experiment [1] (Day 1), the “Minimum Inhibitory Concentration” value turned out to be 5 µg/mL. Besides, the MIC in experiment [3] (pH 5.5, read-out: Minimum Inhibitory Concentrations, C. neoformans, Day 1) worked out at 1 µg/mL; in experiment [3] (pH 5.5, read-out: Minimum Inhibitory Concentrations, C. neoformans, Day 2), 1 µg/mL; in experiment [4] (24 h), 5 µg/mL; in experiment [4], 10 µg/mL.
For the compound `CCCCCCCCCCCCCC[n+]1c(C)cc(C)n1Cc1ccc([N+](=O)[O-])cc1.[Br-]` [Example 6-D, 3,5-dimethyl-2(4-nitrobenzyl)-1-tetradecyl-pyrazolium bromide], the MIC in experiment [1] (Day 1) turned out to be 10 µg/mL; in experiment [1] (Day 2), 10 µg/mL; in experiment [2] (Day 1, 37° C.) it was 0.5 µg/mL; in experiment [2] (Day 2, 37° C.), 1 µg/mL; in experiment [3] (setting [7]), 0.5 µg/mL; in experiment [3] (setting [8]) it was 0.5 µg/mL. Also, the results for the MIC in experiment [4] (setting [5]) and in experiment [4] (setting [6]) were 100 µg/mL and 50 µg/mL, respectively.
